Reference: patent US4833146A, “Tertiary hydroxyalkylxanthines, medicaments containing them and their use” (priority 1985, dated 1989)
Where two headings read alike, the source gives them in different places.

Tests used:
[1] = tested on: ischemic skeletal muscle (tibialis anterior and extensor digitorum longus); test: Chronic experiment on rats with unilateral occlusion of the iliac artery: metabolism in ischemic skeletal muscle (histochemical staining); type: in vivo
[2] = tested on: ischemic skeletal muscle; test: Chronic experiment: contractility of the ischemic skeletal muscle in rats with a ligated right femoral artery; type: in vivo; conditions: 25 mg/kg daily oral, 20 days
Method: The superiority of the xanthines of the formula I was also to be seen from another chronic experiment in which the influence on the contractility of the ischemic skeletal muscle in rats with a ligated right femoral artery was investigated. The animals received the particular test product in a daily oral dose of 25 mg/kg by a stomach tube for 20 days. Thereafter, the fatigability of the ischemic muscle on electrical stimulation with about 80 contractions per minute was determined via the decrease in contractile force after stimulation for 1, 15 and 45 minutes in comparison with untreated control animals. […] This improvement was accompanied by an increase in the mitochondrial respiratory control rate (RCR). […] The compounds according to the invention are accordingly also suitable for the treatment of muscular energy metabolism disorders of various causes, particularly mitochondrial myopathy.

[3] = tested on: ischemic skeletal muscle; test: Action on disturbed peripheral arterial circulation: pO2 in ischemic skeletal muscle, occlusion model on dogs; type: in vivo, male beagle dogs; set-up: key: W = % frequency of positive experiments × mean % pO2 increase; conditions: dog occlusion model
Method: The experimental animals used were male beagle dogs under sodium pentobarbital anesthesia (35 mg/kg intraperitoneally), on whose right hind extremity the femoral artery and a certain area of the lower leg muscle was exposed and on whose left hind extremity the femoral vein was exposed and a cannula inserted for infusion of the product and the femoral artery was exposed and a cannula inserted for blood pressure measurements. The animals were relaxed by administration of alcuronium chloride (0.1 mg/kg intravenously and then 0.05 mg/kg intraperitoneally every 30 minutes) and artificially ventilated in order on the one hand to avoid spontaneous contractions of the muscle with an adverse effect on the pO2 measurements and on the other hand to guarantee a uniform supply of respiratory oxygen. Another catheter inserted into the femoral vein of the right hind extremity was used to monitor the lactate concentration in the venous outflow. […]
In each experiment, the maximum percentage rise in the pO2 following administration of the substance during vascular occlusion was used as the measurement parameter for the action of the product (n=2-11). A dimensionless activity index W was calculated from three measurement values for each compound by obtaining the product of the percentage frequency of positive experiments and the average percentage increase in pO2 resulting from the positive individual values, this index both taking into account interindividual differences in the topology of the vascularization of the muscle and also recording responders and nonresponders to the test compounds and accordingly permitting a more reliable activity comparison amongst the individual products.

[4] = tested on: isolated perfused rabbit ear; test: Inhibiting effect on vascular contraction induced with norfenefrine on the isolated perfused rabbit ear
From the text: It is today generally recognized that exclusively vasodilating drugs or agents with a very potent vasodilating action component are unsuitable for the treatment of disturbances in the microcirculation because, on the one hand, the physiological vasodilatory reserve as a rule is already completely exhausted, and on the other hand there is the risk of a steal phenomenon, which means a harmful redistribution of the nutritive blood flow in the microcirculation at the expense of the already undersupplied diseased tissue. The inhibiting effect on vascular contraction induced with norfenefrine on the isolated perfused rabbit ear was therefore investigated.

[5] = in vivo; conditions: mouse, in vivo, single dose, 7 days, read-out: Toxicity LD50 (mouse)
Method: (§1) The LD50 ranges were determined by the standard method via the mortality which arose within 7 days in NMRI mice following a single intravenous (i.v.) or intraperitoneal (i.p.) dose (NMRI=Naval Medical Research Institute).

[6] = tested on: regional cerebral circulation; test: Action on regional cerebral circulation of anesthetized cats (heat conducting technique); type: in vivo, cats of both sexes; conditions: Felis catus, iv, 3 mg/kg i.v., read-out: Average increase in cerebral circulation as Δλ in %
Method: The percentage increase in the heat transport number λ after administration of the product is thus a measure of the improvement in circulation.
The compounds were administered intravenously in aqueous solution. The dose was 3 mg of test substance per kg of body weight. 3 to 5 individual experiments were carried out for each test product, and the average percentage increase in cerebral circulation was determined from the measurement data obtained.

[7] = animals and humans, cited from earlier work; for "liver first-pass" effect: especially on oral administration; for biotransformation: enzymatic oxidation of the oxo- or hydroxyhexyl side chain
[8] = tested on: NMRI mice; test: in vivo; conditions: single dose, 7 days, Table 3
Method: as §1

SMILES | Activity index W ([3]; i.d. 25 mg/kg) | Activity index W ([3]; i.v. 0.6 mg/kg/min) | change in vivo at 3 mg/kg [6] | further results
CCOCn1cnc2c1c(=O)n(CCCCC(C)(C)O)c(=O)n2C [Example 5, 7-Ethoxymethyl-1-(5-hydroxy-5-methylhexyl)-3-methylxanthine] | 2909 | – | – | proportion of oxidative fibers in the two muscles of the ischemic extremity ([1]; 3 mg/kg intraperitoneally three times daily, 5 weeks): increased significantly; mitochondrial respiratory control rate (RCR) [2]: increase; contractility values reached in the ischemic muscle ([2]; compared with healthy muscle of untreated animals): normal contractility values like those in the left healthy (non-ischemic) muscle of untreated animals being reached; muscular performance in the ischemic extremity ([2]; electrical stimulation for 1, 15 and 45 minutes): significant improvement; Activity index W ([3]; i.v. 0.3 mg/kg/min): 2080; inhibition of the norfenefrine action ([4]; up to a concentration of 100 μg/ml): no inhibition; LD50 at 168 h ([5]; ip, Table 2): 300 to 600 mg/kg; LD50 at 168 h ([5]; iv, Table 2): 150 to 300 mg/kg
CCn1c(=O)n(CCCCC(C)(C)O)c(=O)c2c1ncn2C [Example 17] | – | 1525 | 9.4% | LD50 at 168 h ([5]; iv, Table 3): > 200 mg/kg
CCCn1cnc2c1c(=O)n(CCCC(C)(C)O)c(=O)n2CC [Example 22] | – | – | 12% | LD50 at 168 h ([5]; iv, Table 3): > 200 mg/kg
CCCn1cnc2c1c(=O)n(CCCC(C)(C)O)c(=O)n2C [Example 12, 1-(4-Hydroxy-4-methylpentyl)-3-methyl-7-propylxanthine] | 2337 | 866 | – | –
COCn1cnc2c1c(=O)n(CCC(C)(C)O)c(=O)n2C [Example 32] | 566 | 2650 | – | –
CCOCCn1cnc2c1c(=O)n(CCCCC(C)(C)O)c(=O)n2C [Example 39] | 1996 | 1567 | – | –
CCC(C)(O)CCCCn1c(=O)c2c(ncn2C)n(C)c1=O (stereo not shown) [Example 10, 1-(5-Hydroxy-5-methylheptyl)-3,7-dimethylxantine] | 1965 | – | – | –
CC(O)Cn1cnc2c1c(=O)n(CCCCC(C)(C)O)c(=O)n2C (stereo not shown) [Example 8, 1-(5-Hydroxy-5-methylhexyl)-7-(2-hydroxypropyl)-3-methylxanthine] | – | 1400 | – | –
CC(=O)CCCCn1c(=O)c2c(ncn2C)n(C)c1=O [Pentoxifylline, 3,7-dimethyl-1-(5-oxohexyl)-xanthine, reference compound] | – | – | 8.6% | influence on muscular metabolism in the ischemic skeletal muscle ([1]; chronic experiment, iliac artery occlusion): no direct influence; action in these experiments (ischemic muscle contractility) [2]: no action; "liver first-pass" effect [7]: pronounced; biotransformation [7]: rapid and complete; dilating effect on the norfenefrine-contracted vessels ([4]; concentration range from 10 to 100 μg/ml): dose-dependent dilating effect
CCCn1cnc2c1c(=O)n(CCCCC(C)(C)O)c(=O)n2C [Example 9, 1-(5-Hydroxy-5-methylhexyl)-3-methyl-7-propylxanthine] | – | – | 9.4% | LD50 at 168 h ([5]; iv, Table 3): 100 to 200 mg/kg
CC(O)CCCCn1c(=O)c2c(ncn2C)n(C)c1=O (stereo not shown) [1-(5-hydroxyhexyl)-3,7-dimethylxanthine] | – | – | – | "liver first-pass" effect [7]: pronounced; biotransformation [7]: rapid and complete
CCOCCOCCn1cnc2c1c(=O)n(CCCCC(C)(C)O)c(=O)n2CC [Example 48] | – | – | 14.6% | LD50 at 168 h ([5]; iv, Table 3): > 200 mg/kg
CCn1c(=O)n(CCCCC(C)(C)O)c(=O)c2c1ncn2CCCOC [Example 43] | – | – | 19.8% | LD50 at 168 h ([5]; iv, Table 3): > 200 mg/kg
COCn1cnc2c1c(=O)n(CCCCC(C)(C)O)c(=O)n2C [Example 28] | 2100 | – | – | –
Cn1c(=O)c2c(ncn2CCCCC(C)(C)O)n(C)c1=O [Example 4, 7-(5-Hydroxy-5-methylhexyl)-1,3-dimethylxanthine] | – | 1300 | – | LD50 at 168 h ([5]; iv, Table 2): 100 to 200 mg/kg
Cn1c(=O)n(CCCCC(C)(C)O)c(=O)c2[nH]cnc21 [Example 6, 1-(5-Hydroxy-5-methylhexyl)-3-methylxanthine] | 700 | – | – | –
CCCn1cnc2c1c(=O)n(CCCCC(C)(C)O)c(=O)n2CC [Example 18] | – | 1578 | 9.4% | Toxicity LD50 (mouse) ([8]; i.v.): 100 to 200 mg/kg; LD50 at 168 h ([5]; iv, Table 2): 100 to 200 mg/kg
CCCn1cnc2c1c(=O)n(CCCCCC(C)(C)O)c(=O)n2C [Example 16] | – | 999 | 25.8% | Toxicity LD50 (mouse) ([8]; i.p.): 150 to 300 mg/kg; LD50 at 168 h ([5]; ip, Table 2): 150 to 300 mg/kg
CCCn1c(=O)c2c(ncn2CCCCC(C)(C)O)n(C)c1=O [Example 3, 7-(5-Hydroxy-5-methylhexyl)-3-methyl-1-propylxanthine] | 1250 | 1650 | 15.5% | Toxicity LD50 (mouse) ([8]; i.v.): 100 to 200 mg/kg; LD50 at 168 h ([5]; iv, Table 2): 100 to 200 mg/kg
Cn1c(=O)n(CCCCC(C)(C)O)c(=O)c2c1ncn2CCCO [Example 50] | 733 | 2631 | – | –
Cn1cnc2c1c(=O)n(CCCCC(C)(C)O)c(=O)n2C [Example 14, 1-(5-Hydroxy-5-methylhexyl)-3,7-dimethylxanthine] | – | 960 | – | –
CCn1c(=O)n(CCCCC(C)(C)O)c(=O)c2c1ncn2CCOC [Example 37] | 950 | 1400 | – | –
COCn1cnc2c1c(=O)n(CCCCCC(C)(C)O)c(=O)n2C [Example 27] | – | – | 10.3% | LD50 at 168 h ([5]; iv, Table 3): > 200 mg/kg
COCCOCn1cnc2c1c(=O)n(CCCCC(C)(C)O)c(=O)n2C [Example 44] | – | 1199 | – | –
